According to patent US20250090554A1, “A METHOD OF TREATING DEPRESSION BY IMMUNE MODULATION” (MYND LIFE SCIENCES INC., priority 2021, published 2025):

Key:
ABCF1 [1] = experiment: ABCF1 real time RT-PCR in RAW macrophage cell line treated with drugs; format: cell-based, murine
Procedure: (§1) FIG. 1 illustrates that Escitalopram induces ABCF1 in a Macrophage cell line: RAW macrophages were plated at 1×10^5 cells/well and cultured for 2 days. The cells were incubated with 0.3 mM Escitalopram for 1 hour, and then harvested for total RNA, which was extracted for real time RT-PCR specific for ABCF1 and IL-4. CT values were normalized with CT value for the housekeeping gene from the DMSO control. The difference in the expression after drug treatment is consistent with polarization towards an M2-like phenotype (data were consistent in 3 separate experiments).
FIG. 2 illustrates the effect of psylocibin, psylocin and their analogs on ABCF1 transcription in a macrophage cell line. Briefly, the Macrophage cell line RAW264.7 (ATCC) were grown to 80% confluency in growth media (DMEM+10% FBS+glutamine). Dilutions of psylocibin, psylocin and their analogs were made at desired final concentrations for a Dose response experiment. The concentrations' used for this experiment are: 10 nM, 100 nM, 500 nM for Psilocin, Psylocibin, 4-Acetoxy-N, N-dimthyltryptamine, O-Acetyl Psilocin Fumerate, and 4-acetoxyindole. The cells were incubated for 2 hours and then harvested for total RNA, which was extracted for real time RT-PCR specific for ABCF1. Untreated cells were used as negative control and Escitalopram at 0.3 mM was used as a positive control to activate ABCF1 expression for all the experiments. ES=escitalopram; PSYB=Psylocibin; PSIC=Psilocin; DMT=4-Acetoxy-N, N-dimthyltryptamine; APF=O-Acetyl Psilocin Fumerate, and AOI=4-acetoxyindole.
• 1. Macrophage cell line RAW264.7 (ATCC) were grown to 80% confluency in growth media (DMEM+10% FBS+glutamine). • 2. Dilutions of the drugs were made at desired final concentrations for a Dose response experiment. The concentrations' used for this experiment are: 10 nM, 100 nM, 500 nM for Psilocin, Psylocibin, 4-Acetoxy-N, N-dimthyltryptamine, O-Acetyl Psilocin Fumerate, and 4-acetoxyindole. • 3. A time course response experiment was done for the above stated drugs at concentrations mentioned above (10 nM, 100 nM, 500 nM). The time points chosen were 0, 30 mins, 2 hours and 24 hour. • 4. Untreated cells were used as negative control and Escitalopram at 0.3 mM was used as a positive control to activate ABCF1 expression for all the experiments. Analysis by qPCR:
• 1. Post treatment with drugs at different time points, the reaction was stopped by removing the media with the drug. Cells were then collected and RNA was isolated from these. • 2. After checking the quality of the RNA, cDNA was generated and qPCR was run with ABCF1 primers as the target gene and GAPDH as the house keeping gene. • 3. Normalized against the expression level of GAPDH, the fold change expression level of ABCF1 was calculated and tabulated for all treatment conditions.

ABCF1 [2] = experiment: ABCF1 expression in bone marrow after in vivo drug treatment of mice; design: species or system mice (C57Bl/6); conditions: for ABCF1 expression levels increased in bone marrow (fold): 30 mins treatment in vivo
Procedure: • Species strain: C57Bl/6 • Tissues collected: Brain, Bone marrow, PBMC • Drug treatment: • a. 30 minutes Drug treatment (PBS control, Escitalopram 50 mg/kg, Psilocybin 25 mg/kg) • b. 30 minutes Drug treatment after 30 minutes LPS stimulation (PBS control, Escitalopram 50 mg/kg, O-Acetyl Psilocin Fumarate (APF) 25 mg/kg, 4-AcetoxyIndole (AOI) 2.5 mg/kg, 4-AcO-DET (AODET) 25 mg/kg) • Method: • Weighed and injected the drug into the mice by Intraperitoneal injection. • Euthanized the mice 30 minutes after injections with isoflurane and CO2 • Post cervical Dislocation performed cardiac puncture to collect the whole blood from mice. • Opened the cephalic bone to collect the whole brain. • Removed the skin and muscles, took out both femur and tibia for bone marrow collection. • Tissue process procedures: • Brain—flash frozen and stored hemisphere in-80 for further molecular experiments and sent another part with buffer for sequencing. The frozen Brains were Dounce-homogenized. […]

IL-4 = IL-4 real time RT-PCR in RAW macrophages treated with Escitalopram; format: cell-based, murine; conditions: FIG. 1: 0.3 mM Escitalopram for 1 hour
Procedure: as §1

ABCF1 [3] = conditions: peripheral blood mononuclear cells of patients; cited from earlier work
ABCF1 [4] = experiment: ABCF1 expression in whole brain after in vivo drug treatment of mice; design: species or system mice (C57Bl/6); conditions: Escitalopram 50 mg/kg, psilocybin 25 mg/kg, 30 minutes

SMILES | ABCF1 expression levels increased (fold) (ABCF1 [1]; RAW264.7 cells, post 2 hr treatment with 100 nM) [folds] | ABCF1 expression levels increased in bone marrow (fold) (ABCF1 [2]) [folds] | IL-4 induction (fold) in the macrophage cell line (IL-4) | ABCF1 transcription in PBMCs of patients responding to treatment (ABCF1 [3]) | ABCF1 expression in the whole brain (ABCF1 [4]) | ABCF1 expression in the bone marrow (ABCF1 [2]; Escitalopram 50 mg/kg, psilocybin 25 mg/kg, mice, 30 minutes) | ABCF1 expression in RAW macrophages cell cultures (ABCF1 [1]; Escitalopram 0.6 nM, Psilocybin 500 nM, 2 hrs, vs untreated control) | ABCF1 induction in a macrophage cell line (ABCF1 [1]; RAW macrophages, 0.3 mM Escitalopram, 1 hour) | ABCF1 induction (fold) in the macrophage cell line (ABCF1 [1]; RAW macrophages, FIG. 1: 0.3 mM Escitalopram for 1 hour)
CCCCCc1cc(O)c(C/C=C(\C)CCC=C(C)C)c(O)c1 [Cannabigerol] | 8 | – | – | – | – | – | – | – | –
CN(C)CCc1c[nH]c2cccc(OP(=O)(O)O)c12 [Psilocybin, [3-(2-Dimethylaminoethyl)-1H-indol-4-yl] dihydrogen phosphate] | – | 2 | – | – | – | – | – | – | –
CN(C)CCC[C@@]1(c2ccc(F)cc2)OCc2cc(C#N)ccc21 [Escitalopram] | – | 6 | approximately 5 fold | increased the transcription | induce ABCF1 expression | induces ABCF1 expression | induces ABCF1 expression | induces ABCF1 | approximately 20 fold
